Test results taken from patent US8916602B2, “Fusarisetin compounds, and use thereof” (Korea Research Institute of Bioscience and Biotechnology, priority 2010, dated 2014).
≈ marks a conversion by molar mass, not a printed value.

Experiments:
Type in all cases: cell-based
[1] = tested on: human promyelocytic leukemia cell line (HL-60); test: Inhibition of cancer cell proliferation (WST-8 cell survival), HL-60; conditions: HL-60 cell line, 48 hours culture with compound, WST-8, OD450
Method: (§1) Following experiment was performed to investigate the inhibitory activity of the compounds 1 and 2 of the present invention on the proliferation of cancer cells.
(§2) Particularly, human breast cancer cell line (MDA-MB-231, 5.0×10^3 cells per well), mouse fibroblast cell line (3Y1, 5.0×10^3 cells per well), and human liver cancer cell line (Hep3B, 5.0×10^3 cells per well) were cultured respectively in DMEM (Dulbecco's modification of Eagles medium, supplemented with 10% FBS). And human chronic myeloid leukemia cell line (K562, 3.0×10^4 cells per well) and human promyelocytic leukemia cell line (HL-60, 1.0×10^5 cells per well) were cultured respectively in RPMI 1640 (Roswell Park Memorial Institute 1640 medium, supplemented with 10% FBS). Each cell line cultured above was treated with different concentrations of the compound 1 and compound 2 (100 μg/ml, 30 μg/ml, 10 μg/ml, 3 μg/ml, and 1 μg/ml), followed by culture in a 5% CO2 incubator for 48 hours at 37° C. WST-8 reagent (2-(2-methoxy-4-nitrophenyl)-3-(4-nitrophenyl)-5-(2,4-disulfophenyl)-2H-tetrazolium, monosodium salt) producing high sensitive water soluble formazan was added thereto, followed by further culture for 24 hours. OD450 was measured to calculate cell survival rate.

[2] = tested on: mouse fibroblast cell line (3Y1); test: Inhibition of cell proliferation (WST-8 cell survival), 3Y1; conditions: 3Y1 cell line, 48 hours culture with compound, WST-8, OD450
Method: as §1, §2

[3] = tested on: human breast cancer cells (MDA-MB-231 cells); test: Inhibition of cancer cell metastasis, trans-well chamber (Matrigel Invasion Chamber); conditions: migration induced by 10% FBS, 24 hours, tested at 30, 10 and 3 μg/ml
Method: Trans-well chamber (BioCoat™ Matrigel™ Invasion Chamber, pore size 8 μm, BD Biosciences, Bedford, Mass.) was used for the investigation of inhibitory activity of the compounds of the present invention on cancer cell metastasis. Particularly, human breast cancer cells (MDA-MB-231 cells) were distributed on the upper part of the chamber at the density of 1.0×10^5 cells per well. DMEM (Dulbecco's modification of Eagles medium, serum-free) was used for the culture. 30 minutes later, the compounds 1 and 2 were added to the upper part of the chamber at different concentrations of 30 μg/ml, 10 μg/ml, and 3 μg/ml, respectively. 30 minutes later, 10% FBS was added to the bottom of the chamber, followed by culture in a 5% CO2 incubator at 37° C. for 24 hours. 24 hours later, the cells migrated through porous membrane which had been induced by 10% FBS in the bottom of the chamber were fixed with 100% MeOH, followed by staining with Wright stain. Upon completion of the staining, the migrated cells were counted under microscope.

[4] = tested on: human chronic myeloid leukemia cell line (K562); test: Inhibition of cancer cell proliferation (WST-8 cell survival), K562; conditions: 48 hours culture with compound, WST-8, OD450
Method: as §1, §2

[5] = tested on: human liver cancer cell line (Hep3B); test: Inhibition of cancer cell proliferation (WST-8 cell survival), Hep3B; conditions: 48 hours culture with compound, WST-8, OD450
Method: as §1, §2

[6] = tested on: human breast cancer cell line (MDA-MB-231); test: Inhibition of cancer cell proliferation (WST-8 cell survival), MDA-MB-231; conditions: MDA-MB-231 cell line, 48 hours culture with compound, WST-8, OD450
Method: as §1, §2

Compound	IC50 [1] [µg/mL]	IC50 [2] [µg/mL]	ED100 indicating the concentration capable of inhibiting metastasis of human breast cancer cell line by 100% [3] [µg/mL]	IC50 [4] [µg/mL]	IC50 [5] [µg/mL]	IC50 [6] [µg/mL]
C[C@H]1CC[C@H]2[C@@H](C=C[C@@H]3[C@H]4[C@H](C)O[C@]5(O)[C@@H](CO)N(C)C(=O)[C@]45C(=O)[C@@]32C)C1 [compound 2, fusarisetin B]	29.4 (≈ 75.5 µM)	62.2 (≈ 160 µM)	10	49.3 (≈ 127 µM)	27.2 (≈ 69.8 µM)	76.5 (≈ 196 µM)
C[C@H]1CC[C@H]2[C@@H](C=C[C@@H]3[C@H]4[C@@H](C)O[C@]5(O)[C@@H](CO)N(C)C(=O)[C@]45C(=O)[C@@]32C)C1 [compound 1, fusarisetin A]	57.7 (≈ 148 µM)	67.5 (≈ 173 µM)	10	61.3 (≈ 157 µM)	34.7 (≈ 89.1 µM)	69.5 (≈ 178 µM)
